According to patent US6375979B2 (Somerset Pharmaceuticals, Inc., priority 1995, dated 2002):
Values joined by “and” are separate entries in the source; they are usually repeats but may differ in a detail not shown here. Identical values can stand only once. Like-named read-outs stand apart in the source and are kept apart here.

What was measured:
interleukin-2 production = assay: Concanavalin A-induced interleukin-2 production by spleen cells of treated old rats; format: in vivo, rat; details: for IL-2 % control / IL-2 U/ml mean: ip daily 60 days
Experimental: The present experiments utilized a rat model to examine the ability of R(−)DMS and S(+)DMS to restore immunological function. Rats were divided into the following experimental groups:
Rats were administered saline or test agent ip, daily for 60 days. They were then maintained for an additional “wash out” period of 10 days during which time no treatment was given. At the end of this time, animals were sacrificed and their spleens were removed. The spleen cells were then assayed for a variety of factors which are indicative of immune system function. Specifically, standard tests were employed to determine the following:
2) in vitro concanavalin A-induced production of interleukin-2;

MAO-B [1] = target: T1, MAO-B (Cavia porcellus, UniProt P58028); assay: MAO-B inhibition in guinea pig hippocampal homogenates in vitro; format: biochemical; details: read-out: MAO-B % Inhibition x ± SEM
T1 construct: by human platelets and/or guinea pig hippocampal homogenates; from tissue; host or cells: guinea pig hippocampus homogenate
T1 sequence (P58028 1-520): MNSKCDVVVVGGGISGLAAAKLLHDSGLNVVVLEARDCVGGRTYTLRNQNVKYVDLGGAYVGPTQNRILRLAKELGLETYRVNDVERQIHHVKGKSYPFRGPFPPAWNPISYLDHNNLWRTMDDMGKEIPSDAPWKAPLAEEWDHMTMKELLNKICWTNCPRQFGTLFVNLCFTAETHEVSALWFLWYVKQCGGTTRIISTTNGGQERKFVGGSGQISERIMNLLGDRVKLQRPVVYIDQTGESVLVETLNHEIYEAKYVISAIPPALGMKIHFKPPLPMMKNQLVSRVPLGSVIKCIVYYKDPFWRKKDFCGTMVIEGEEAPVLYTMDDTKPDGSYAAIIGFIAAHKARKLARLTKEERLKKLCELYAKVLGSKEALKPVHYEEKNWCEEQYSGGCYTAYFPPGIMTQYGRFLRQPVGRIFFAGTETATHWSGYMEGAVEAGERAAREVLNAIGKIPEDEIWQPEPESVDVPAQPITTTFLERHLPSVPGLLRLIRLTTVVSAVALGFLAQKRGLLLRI
Excerpt: Human platelet MAO is comprised exclusively of the type-B isoform of the enzyme. […] The present study also examined the two enantiomers of DMS for inhibitory activity with respect to the MAO-A and MAO-B in guinea pig hippocampal tissue. Guinea pig brain tissue is an excellent animal model for studying brain dopamine metabolism, the enzyme kinetics of the multiple forms of MAO and the inhibitory properties of novel agents that interact with these enzymes. The multiple forms of MAO in this animal species show similar kinetic properties to those found in human brain tissue. Finally, the test agents were administered to guinea pigs and the extent to which they might act as inhibitors of brain MAO in vivo was assessed.
In vitro: The test system utilized the in vitro conversion of specific substrates of MAO-A (^14C-serotonin) and MAO-B (^14C-phenylethylamine) by human platelets and/or guinea pig hippocampal homogenates. […] A percent inhibition was calculated from these values.

MAO-B [2] = target: T1, MAO-B; assay: In vivo brain MAO-B inhibition in guinea pig hippocampus after 5 days of administration
Experimental: FIG. 20: In Vivo MAO-B Inhibition in Guinea Pig Hippocampus. […] Animals were then sacrificed and the MAO-B activity in the hippocampus portion of the brain was determined. […] The plots were used to estimate the ID50 dosage for each agent.
Each enantiomer of DMS was administered in vivo by subcutaneous injection once a day for five consecutive days, and inhibition of brain MAO-B activity was then determined.

[3] = tested on: cultured rat mesencephalic cells exposed to NMDA; assay: NMDA model of cell death: TH immunochemistry; details: 100 μM NMDA exposure
Experimental: Rat mesencephalic cell cultures were exposed to 100 μM NMDA and incubated as described above in connection with FIG. 16.

[4] = tested on: TH positive cells in cultured E-14 embryonic mesencephalic cells
[5] = tested on: cultured rat mesencephalic cells; assay: Medium change (glutamate receptor dependent) model of cell death: TH positive cells; details: medium change model
Experimental: In these experiments, cells were plated and allowed to stabilize for several days.

MAO-A = target: T2, MAO-A (Rattus norvegicus, UniProt P21396)
T2 sequence (P21396 1-526): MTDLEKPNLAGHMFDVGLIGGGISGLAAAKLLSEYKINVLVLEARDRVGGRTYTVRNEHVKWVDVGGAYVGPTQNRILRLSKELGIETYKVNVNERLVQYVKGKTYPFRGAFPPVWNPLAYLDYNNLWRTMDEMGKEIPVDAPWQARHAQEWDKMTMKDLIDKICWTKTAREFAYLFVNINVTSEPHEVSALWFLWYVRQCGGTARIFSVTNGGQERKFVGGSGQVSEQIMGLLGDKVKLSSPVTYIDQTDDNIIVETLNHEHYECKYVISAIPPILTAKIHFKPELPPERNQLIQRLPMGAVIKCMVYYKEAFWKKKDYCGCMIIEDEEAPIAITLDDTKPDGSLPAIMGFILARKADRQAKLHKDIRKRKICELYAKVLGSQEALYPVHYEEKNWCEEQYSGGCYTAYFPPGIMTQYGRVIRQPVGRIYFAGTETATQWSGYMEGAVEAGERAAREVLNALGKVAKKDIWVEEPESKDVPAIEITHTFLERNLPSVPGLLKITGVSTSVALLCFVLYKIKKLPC

[6] = tested on: cultured embryonic mesencephalic cells; assay: Neuronal survival: [3H]dopamine uptake by cultured mesencephalic cells; format: cell-based, rat
Excerpt: The amount of uptake by the cultured brain cells corresponds to axonal growth.

[7] = 1.0 mg/kg (for DMS enantiomers)

C#CCN[C@@H](C)Cc1ccccc1 (single isomer, unassigned) [S(+)DMS, ent-desmethylselegiline]
IL-2 production after treatment (interleukin-2 production): not enhanced
IL-2 % control (interleukin-2 production; [7]): 291%
IL-2 U/ml mean (interleukin-2 production; [7]): 57.12 U/ml
inhibition at 1 µM (MAO-B [1]): 44.4 ± 6.4%
times less potent than selegiline, preliminary studies (MAO-B [2]; brain MAO-B in vivo): about 10 times
times less potent than selegiline as an inhibitor of MAO-B, more recent studies (MAO-B [2]; brain MAO-B in vivo, larger group of animals): about 50 times
ED50 (MAO-B [2]; guinea pig, sc, read-out: ID50 for MAO-B in Guinea Pig Hippocampal Cortex, once a day for 5 days, subcutaneous, larger group of animals, FIG. 20): ~0.5 mg/kg

desmethylselegiline [R(−)DMS]
TH Immunochemistry, % control, Mean ([3]; 0.5 μM): 97.3%
TH Immunochemistry, % control, individual cultures ([3]; 0.5 μM): 100.9% and 79.6% and 111.5%
TH Immunochemistry, cells/cm^2, Mean ([3]; 0.5 μM): 91.67 cells/cm^2
TH Immunochemistry, cells/cm^2, individual cultures ([3]; 0.5 μM): 95.0 cells/cm^2 and 75.0 cells/cm^2 and 105.0 cells/cm^2
TH Immunochemistry, % control, Mean ([3]; 5.0 μM): 136.1%
TH Immunochemistry, % control, individual cultures ([3]; 5.0 μM): 151.3% and 130.1% and 138.1% and 124.8%
TH Immunochemistry, cells/cm^2, Mean ([3]; 5.0 μM): 128.13 cells/cm^2
TH Immunochemistry, cells/cm^2, individual cultures ([3]; 5.0 μM): 142.5 cells/cm^2 and 122.5 cells/cm^2 and 130.0 cells/cm^2 and 117.5 cells/cm^2
TH Immunochemistry, % control, Mean ([3]; 50 μM): 165.9%
TH Immunochemistry, % control, individual cultures ([3]; 50 μM): 252.2% and 180.5% and 108.8% and 122.1%
TH Immunochemistry, cells/cm^2, Mean ([3]; 50 μM): 156.25 cells/cm^2
TH Immunochemistry, cells/cm^2, individual cultures ([3]; 50 μM): 237.5 cells/cm^2 and 170.0 cells/cm^2 and 102.5 cells/cm^2 and 115.0 cells/cm^2
IL-2 production after treatment (interleukin-2 production): not enhanced
IL-2 % control (interleukin-2 production; [7]): 223%
IL-2 U/ml mean (interleukin-2 production; [7]): 43.7 U/ml
IL-2 U/ml mean (interleukin-2 production; […] (for R(−)DMS by group order)): 64.54 U/ml
IL-2 U/ml mean (interleukin-2 production; dose not printed in row, by group order […]): 55.17 U/ml
Survival of TH positive cells, % cont. ([4]; 0.5 μM): 226.62%
Survival of TH positive cells, Mean cells/cm^2 ([4]; 0.5 μM): 246.00 ± 22.76 cells/cm^2
Survival of TH positive cells, % cont. ([4]; 5 μM): 329.76%
Survival of TH positive cells, Mean cells/cm^2 ([4]; 5 μM): 357.95 ± 25.76 cells/cm^2
Survival of TH positive cells, % cont. ([4]; 50 μM): 360.76%
Survival of TH positive cells, Mean cells/cm^2 ([4]; 50 μM): 391.60 ± 34.93 cells/cm^2
TH Immunochemistry, % control, Mean ([5]; 0.5 μM): 123.9%
TH Immunochemistry, % control, individual cultures ([5]; 0.5 μM): 129.0% and 117.6% and 125.2%
TH Immunochemistry, cells/cm^2, Mean ([5]; 0.5 μM): 335.63 cells/cm^2
TH Immunochemistry, cells/cm^2, individual cultures ([5]; 0.5 μM): 340.0 cells/cm^2 and 310.0 cells/cm^2 and 330.0 cells/cm^2 and 362.5 cells/cm^2
TH Immunochemistry, % control, Mean ([5]; 5.0 μM): 132.1%
TH Immunochemistry, % control, individual cultures ([5]; 5.0 μM): 122.3% and 129.9% and 137.5% and 138.5%
TH Immunochemistry, cells/cm^2, Mean ([5]; 5.0 μM): 348.13 cells/cm^2
TH Immunochemistry, cells/cm^2, individual cultures ([5]; 5.0 μM): 322.5 cells/cm^2 and 342.5 cells/cm^2 and 362.5 cells/cm^2 and 365.0 cells/cm^2
TH Immunochemistry, % control, Mean ([5]; 50 μM): 144.9%
TH Immunochemistry, % control, individual cultures ([5]; 50 μM): 117.6% and 167.9% and 144.1% and 149.8%
TH Immunochemistry, cells/cm^2, Mean ([5]; 50 μM): 381.88 cells/cm^2
TH Immunochemistry, cells/cm^2, individual cultures ([5]; 50 μM): 310.0 cells/cm^2 and 442.5 cells/cm^2 and 380.0 cells/cm^2 and 395.0 cells/cm^2
inhibition (MAO-A; 0.3 µM): 0%
inhibition (MAO-A; 1 μM): 0.7%
inhibition (MAO-A; 3 µM): 4.1%
inhibition (MAO-A; 10 μM): 11.8%
inhibition (MAO-A; 100 μM): 56.1%
3H-Dopamine Uptake, % Cont ([6]; 0.5 μM): 200.4%
3H-Dopamine Uptake, Mean ([6]; 0.5 μM): 24020 ± 800
3H-Dopamine Uptake, % Cont ([6]; 5 μM): 291.5%
3H-Dopamine Uptake, Mean ([6]; 5 μM): 34936 ± 2119
3H-Dopamine Uptake, % Cont ([6]; 50 μM): 474.3%
3H-Dopamine Uptake, Mean ([6]; 50 μM): 56826 ± 2656
